Columns and labels:
[1] = target: T1, c-Kit kinase (SEQ ID NO:9) (Homo sapiens, UniProt P10721); assay: C-Kit kinase (SEQ ID NO:9) assay, pyruvate kinase/lactate dehydrogenase coupled; details: <2 min preincubation, ATP 200 μM; read-out: Biochemical IC50, c-Kit Enzyme Assay
T1 construct: contained c-Kit (cKIT residues T544-V976, from ProQinase, 5.4 nM); purchased ProQinase
Procedure: C-Kit Kinase (SEQ ID NO:9) Assay
Activity of c-Kit kinase (SEQ ID NO:9) was determined by following the production of ADP from the kinase reaction through coupling with the pyruvate kinase/lactate dehydrogenase system (e.g., Schindler, et al. Science (2000) 289, 1938-1942). In this assay, the oxidation of NADH (thus the decrease at A340 nm) was continuously monitored spectrophometrically. The reaction mixture (100 μl) contained c-Kit (cKIT residues T544-V976, from ProQinase, 5.4 nM), polyE4Y (1 mg/ml), MgCl2 (10 mM), pyruvate kinase (4 units), lactate dehydrogenase (0.7 units), phosphoenol pyruvate (1 mM), and NADH (0.28 mM) in 90 mM Tris buffer containing 0.2% octyl-glucoside and 1% DMSO, pH 7.5. Test compounds were incubated with […] (SEQ ID NO:9) and other reaction reagents at 22° C. for <2 min before ATP (200 μM) was added to start the reaction. The absorption at 340 nm was monitored continuously for 0.5 hours at 30° C. on Polarstar Optima plate reader (BMG). The reaction rate was calculated using the 0 to 0.5 h time frame. Percent inhibition was obtained by comparison of reaction rate with that of a control (i.e. with no test compound). IC50 values were calculated from a series of percent inhibition values determined at a range of inhibitor concentrations using software routines as implemented in the GraphPad Prism software package.

[2] = target: T2, Abl kinase (SEQ ID NO: 1) (Homo sapiens, UniProt P00519); assay: Abl kinase (SEQ ID NO:1) assay, pyruvate kinase/lactate dehydrogenase coupled; details: 2 h preincubation, ATP 500 μM; read-out: Biochemical IC50, Abl Enzyme Assay
T2 construct: purchased deCode Genetics
T2 sequence (P00519 with tags, fused parts or gaps): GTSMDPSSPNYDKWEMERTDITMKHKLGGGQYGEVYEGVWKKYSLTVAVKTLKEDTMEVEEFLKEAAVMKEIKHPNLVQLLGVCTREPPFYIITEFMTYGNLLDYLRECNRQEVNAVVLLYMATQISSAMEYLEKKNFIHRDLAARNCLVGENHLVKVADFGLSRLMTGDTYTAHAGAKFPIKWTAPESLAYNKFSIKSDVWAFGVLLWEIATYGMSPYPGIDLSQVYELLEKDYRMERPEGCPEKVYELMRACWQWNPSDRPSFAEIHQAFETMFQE
Procedure, shortened: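 ADP formation was coupled to pyruvate kinase/lactate dehydrogenase, and NADH loss at 340 nm was followed continuously. Compounds were preincubated 2 h at 30° C before 500 μM ATP, and rates from 1.0–2.0 h gave % inhibition and IC50.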

T1 sequence (P10721 with tags, fused parts or gaps): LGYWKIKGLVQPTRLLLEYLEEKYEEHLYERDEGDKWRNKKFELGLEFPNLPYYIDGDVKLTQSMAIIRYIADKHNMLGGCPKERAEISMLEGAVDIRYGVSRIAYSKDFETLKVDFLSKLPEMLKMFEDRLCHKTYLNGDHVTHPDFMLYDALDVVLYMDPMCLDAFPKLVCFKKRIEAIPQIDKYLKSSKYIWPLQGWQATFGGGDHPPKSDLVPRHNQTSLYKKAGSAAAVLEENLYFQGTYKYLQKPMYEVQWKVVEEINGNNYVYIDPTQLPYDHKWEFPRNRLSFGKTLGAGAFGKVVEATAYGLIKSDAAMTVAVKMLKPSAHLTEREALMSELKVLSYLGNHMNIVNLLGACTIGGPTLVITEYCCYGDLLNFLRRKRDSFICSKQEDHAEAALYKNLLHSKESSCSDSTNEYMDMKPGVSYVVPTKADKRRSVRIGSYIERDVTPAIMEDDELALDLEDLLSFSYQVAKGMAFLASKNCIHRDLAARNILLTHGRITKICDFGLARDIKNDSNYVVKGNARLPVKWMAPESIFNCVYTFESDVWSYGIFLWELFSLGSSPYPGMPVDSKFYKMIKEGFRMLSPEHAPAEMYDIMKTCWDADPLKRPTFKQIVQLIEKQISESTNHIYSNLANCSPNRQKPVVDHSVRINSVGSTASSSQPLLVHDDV

CN(C)CCn1nc(C(C)(C)C)cc1NC(=O)Nc1ccc(Oc2ccnc(-c3cnn(C)c3)c2)cc1F [Example 12, 1-(3-tert-butyl-1-(2-(dimethylamino)ethyl)-11H-pyrazol-5-yl)-3-(2-fluoro-4-(2-(1-methyl-1H-pyrazol-4-yl)pyridin-4-yloxy)phenyl)urea]
IC50 [1]: < 0.1 µM | IC50 [2]: < 0.1 µM

Cn1cc(-c2cc(Oc3ccc(NC(=O)Nc4cncc(C(F)(F)F)c4)c(F)c3)ccn2)cn1 [Example 21, 1-(2-fluoro-4-(2-(1-methyl-1H-pyrazol-4-yl)pyridin-4-yloxy)phenyl)-3-(5-(trifluoromethyl)pyridin-3-yl)urea]
IC50 [1]: < 0.1 µM | IC50 [2]: < 0.1 µM

Cc1oc(C(C)(C)C)cc1NC(=O)Nc1ccc(Oc2ccnc(-c3cnn(C)c3)c2)cc1F [Example 28, 1-(5-tert-butyl-2-methylfuran-3-yl)-3-(2-fluoro-4-(2-(1-methyl-1H-pyrazol-4-yl)pyridin-4-yloxy)phenyl)urea]
IC50 [1]: < 0.1 µM | IC50 [2]: < 0.1 µM

Cn1cc(-c2cc(Oc3ccc(NC(=O)Nc4cnn(C5CCCC5)c4)c(F)c3)ccn2)cn1 [Example 15, 1-(1-cyclopentyl-1H-pyrazol-4-yl)-3-(2-fluoro-4-(2-(1-methyl-1H-pyrazol-4-yl)pyridin-4-yloxy)phenyl)urea]
IC50 [1]: < 0.1 µM | IC50 [2]: < 0.1 µM

Cn1cc(-c2cc(Oc3ccc(NC(=O)Nc4cc(C(C)(C)C)nn4C)c(F)c3)ccn2)cn1 [Example 2, 1-(3-t-butyl-1-methyl-1H-pyrazol-5-yl)-3-(2-fluoro-4-(2-(1-methyl-1H-pyrazol-4-yl)pyridin-4-yloxy)phenyl)urea]
IC50 [1]: < 0.1 µM | IC50 [2]: < 0.1 µM

Cn1cc(-c2cc(Oc3ccc(NC(=O)Nc4cc(C(C)(C)C)no4)c(F)c3)ccn2)cn1 [Example 1, 1-(3-t-butylisoxazol-5-yl)-3-(2-fluoro-4-(2-(1-methyl-1H-pyrazol-4-yl)pyridin-4-yloxy)phenyl)urea]
IC50 [1]: < 0.1 µM | IC50 [2]: < 0.1 µM

Cc1c(NC(=O)Nc2ccc(Oc3ccnc(-c4cnn(C)c4)c3)cc2F)cnn1C(C)(C)C [Example 10, 1-(1-tert-butyl-5-methyl-1H-pyrazol-4-yl)-3-(2-fluoro-4-(2-(1-methyl-1H-pyrazol-4-yl)pyridin-4-yloxy)phenyl)urea]
IC50 [1]: < 0.1 µM | IC50 [2]: < 0.1 µM

Cn1cc(-c2cc(Oc3ccc(NC(=O)Nc4cc(C(C)(C)C)no4)c(F)c3F)ccn2)cn1 [Example 25, 1-(3-tert-butylisoxazol-5-yl)-3-(2,3-difluoro-4-(2-(1-methyl-1H-pyrazol-4-yl)pyridin-4-yloxy)phenyl)urea]
IC50 [1]: < 0.1 µM | IC50 [2]: < 0.1 µM

CC(C)c1cncc(NC(=O)Nc2ccc(Oc3ccnc(-c4cnn(C)c4)c3)cc2F)c1 [Example 22, 1-(2-fluoro-4-(2-(1-methyl-1H-pyrazol-4-yl)pyridin-4-yloxy)phenyl)-3-(5-isopropylpyridin-3-yl)urea]
IC50 [1]: < 0.1 µM | IC50 [2]: < 0.1 µM

Cn1cc(-c2cc(Oc3ccc(NC(=O)Nc4cnn(C(C)(C)C)c4)c(F)c3F)ccn2)cn1 [Example 8, 1-(1-tert-butyl-1H-pyrazol-4-yl)-3-(2,3-difluoro-4-(2-(1-methyl-1H-pyrazol-4-yl)pyridin-4-yloxy)phenyl)urea]
IC50 [1]: < 0.1 µM | IC50 [2]: < 0.1 µM

Cn1cc(-c2cc(Oc3ccc(NC(=O)Nc4cc(C(F)(F)F)cnc4-c4cnn(C)c4)c(F)c3)ccn2)cn1 [Example 42, 1-(2-fluoro-4-(2-(1-methyl-1H-pyrazol-4-yl)pyridin-4-yloxy)phenyl)-3-(2-(1-methyl-1H-pyrazol-4-yl)-5-(trifluoromethyl)pyridin-3-yl)urea]
IC50 [1]: < 0.1 µM | IC50 [2]: < 0.1 µM

Cn1cc(-c2cc(Oc3ccc(NC(=O)Nc4cnn(C(C)(C)C)c4C(F)(F)F)c(F)c3)ccn2)cn1 [Example 9, 1-(1-tert-butyl-5-(trifluoromethyl)-1H-pyrazol-4-yl)-3-(2-fluoro-4-(2-(1-methyl-1H-pyrazol-4-yl)pyridin-4-yloxy)phenyl)urea]
IC50 [1]: < 0.1 µM | IC50 [2]: < 0.1 µM

1-(2-fluoro-4-(2-(1-methyl-1H-pyrazol-4-yl)pyridin-4-yloxy)phenyl)-3-(3-(1-methylcyclopentyl)isoxazol-5-yl)urea [Example 14]
IC50 [1]: < 0.1 µM | IC50 [2]: < 0.1 µM

Cn1cc(-c2cc(Oc3ccc(NC(=O)Nc4cnc(C(C)(C)C)nc4N4CCOCC4)c(F)c3)ccn2)cn1 [Example 41, 1-(2-tert-butyl-4-morpholinopyrimidin-5-yl)-3-(2-fluoro-4-(2-(1-methyl-1H-pyrazol-4-yl)pyridin-4-yloxy)phenyl)urea]
IC50 [1]: < 100 µM | IC50 [2]: < 1 µM

Cn1cc(-c2cc(Oc3ccc(NC(=O)Nc4nnc(C(C)(C)C)s4)c(F)c3)ccn2)cn1 [Example 11, 1-(5-tert-butyl-1,3,4-thiadiazol-2-yl)-3-(2-fluoro-4-(2-(1-methyl-1H-pyrazol-4-yl)pyridin-4-yloxy)phenyl)urea]
IC50 [1]: < 0.1 µM | IC50 [2]: < 0.1 µM

Cn1cc(-c2cc(Oc3ccc(NC(=O)Nc4cc(C(F)(F)F)c[nH]c4=O)c(F)c3)ccn2)cn1 [Example 27, 1-(2-fluoro-4-(2-(1-methyl-1H-pyrazol-4-yl)pyridin-4-yloxy)phenyl)-3-(2-oxo-5-(trifluoromethyl)-1,2-dihydropyridin-3-yl)urea]
IC50 [1]: < 0.1 µM | IC50 [2]: < 0.1 µM

Cn1cc(-c2cc(Oc3ccc(NC(=O)Nc4cncc(C(F)(F)F)c4)cc3)ccn2)cn1 [Example 6, 1-(4-(2-(1-methyl-1H-pyrazol-4-yl)pyridin-4-yloxy)phenyl)-3-(5-(trifluoromethyl)pyridin-3-yl)urea]
IC50 [1]: < 0.1 µM | IC50 [2]: < 0.1 µM

Cn1cc(-c2cc(Oc3ccc(NC(=O)Nc4cnn(C(C)(C)C)c4)c(F)c3)ccn2)cn1 [Example 5, 1-(1-t-butyl-1H-pyrazol-4-yl)-3-(2-fluoro-4-(2-(1-methyl-1H-pyrazol-4-yl)pyridin-4-yloxy)phenyl)urea]
IC50 [1]: < 0.1 µM | IC50 [2]: < 0.1 µM

Cn1cc(-c2cc(Oc3ccc(NC(=O)Nc4cccc(C(F)(F)F)c4)c(F)c3)ccn2)cn1 [Example 3, 1-(2-fluoro-4-(2-(1-methyl-1H-pyrazol-4-yl)pyridin-4-yloxy)phenyl)-3-(3-(trifluoromethyl)phenyl)urea]
IC50 [1]: < 0.1 µM | IC50 [2]: < 0.1 µM
